Legend:
human skin = experiment: Skin irritation test of active ingredient (patch method, CTFA guidelines); format: in vivo; conditions: 24 h patch; for Test result (number of subject) (+) / Test result (number of subject) (++) / Test result (number of subject) (±) / Test result (number of subject) (−): 20 people; for Test result (number of subject) (+): (+) apparent reddening; for Test result (number of subject) (++): (++) more reddened and swollen; for Test result (number of subject) (±): (±) slightly reddish; for Test result (number of subject) (−): (−) no erythema
Method: A filter paper disk was placed in an 8 mm diameter, 10 panels of pin chamber.
After 24 hours, the pin chamber was removed, and skin conditions were visually observed. The degree and grade for skin irritation were calculated according to the following Equation 2, and the results are shown in Table 4 below.
[Criteria for Skin Irritation]
(−): No erythema or particularly no symptoms; (±): slightly reddish than the periphery; (+): Apparent reddening than periphery; (++): More reddened and swollen than periphery.
[Grade for Skin Irritation]
Degree of irritation 0-0.1: Grade I (unstimulated);
Degree of irritation 0.11-0.3: Grade II (weakly stimulated);
Degree of irritation 0.31-0.5: Grade III (moderately stimulated);
Degree of irritation 0.51 or more: Grade IV (strongly stimulated)

[1] = Heavy metal removal ability test in contaminated soil (ICP-MS), cadmium; conditions: for Cadmium (Cd) Adsorption amount: contaminated soil; for Cadmium (Cd) Adsorption rate: relative to EDTA control
Method: (§1) (1) Preparation of Soil Contaminated with Heavy Metal
(§2) After collecting and pulverizing uncontaminated soil, fine particles obtained by using a mesh were mixed with the aqueous heavy metal solution to prepare soil samples contaminated with heavy metals.
(§3) Each 3 ml of the prepared aqueous solution was added to a soil sample contaminated with heavy metals and mixed for 5 minutes.
(§4) 50 ml of distilled water was added to the contaminated soil mixed with the aqueous solution for restoring soil, stirred for 20 minutes, and settled for 1 hour, and a supernatant was prepared as a sample solution.
(§5) The prepared sample solution was analyzed for the heavy metal component using an Inductively Coupled Plasma Mass Spectrometer (ICP-MS) (Xseries™ 2, Thermo Fisher Scientific, UK).
(§6) Adsorption rate of heavy metals (%)=(Adsorption amount of Embodiment/Adsorption amount of Control)×100 Equation 1

[2] = Heavy metal removal ability test in contaminated soil (ICP-MS), nickel; conditions: for Nickel (Ni) Adsorption amount: contaminated soil; for Nickel (Ni) Adsorption rate: relative to EDTA control
Method: as §1, §2, §3, §4, §5, §6

[3] = Formaldehyde (formalin) removing ability test (GC); conditions: 2.0% formaldehyde solution, 3 molar equivalents of compound, room temperature; for Formaldehyde GC Area, 30 min: after 30 min; for Formaldehyde GC Area, 180 min: after 180 min; for Formaldehyde GC Area, Initial: initial state
[4] = Heavy metal removal ability test in contaminated soil (ICP-MS), arsenic; conditions: for Arsenic (As) Adsorption amount: contaminated soil; for Arsenic (As) Adsorption rate: relative to EDTA control
Method: as §1, §2, §3, §4, §5, §6

[5] = Heavy metal removal ability test in contaminated soil around a factory (WAK-Me test kit); conditions: 1.0 wt % aqueous solution, colour comparison test kit
Method: The contaminated soil around the factory in the industrial complex was collected, pulverized, and meshed to prepare fine particles of soil samples.
Each 3 ml of aqueous solutions for restoring soil was added to soil samples and mixed for 5 minutes.

| SMILES | Test result (number of subject) (+) (human skin; content 0.1 wt %) | Test result (number of subject) (++) (human skin; content 0.1 wt %) | Test result (number of subject) (±) (human skin; content 0.1 wt %) | Test result (number of subject) (−) (human skin; content 0.1 wt %) | Degree of irritation (human skin; content 0.1 wt %) | Grade for skin irritation (human skin; content 0.1 wt %) | Test result (number of subject) (+) (human skin; content 0.5 wt %) | Test result (number of subject) (++) (human skin; content 0.5 wt %) | Test result (number of subject) (±) (human skin; content 0.5 wt %) | Test result (number of subject) (−) (human skin; content 0.5 wt %) | Degree of irritation (human skin; content 0.5 wt %) | Grade for skin irritation (human skin; content 0.5 wt %) | Test result (number of subject) (+) (human skin; content 1.0 wt %) | Test result (number of subject) (++) (human skin; content 1.0 wt %) | Test result (number of subject) (±) (human skin; content 1.0 wt %) | Test result (number of subject) (−) (human skin; content 1.0 wt %) | Degree of irritation (human skin; content 1.0 wt %) | Grade for skin irritation (human skin; content 1.0 wt %) | Cadmium (Cd) Adsorption amount ([1]; content 0.5% aqueous solution) | Cadmium (Cd) Adsorption rate ([1]; content 0.5%) | also measured |
| --- | --- | --- | --- | --- | --- | --- | --- | --- | --- | --- | --- | --- | --- | --- | --- | --- | --- | --- | --- | --- | --- |
| O=C(O)c1ccc(N2CCN(c3ccc(C(=O)O)cc3)CCN(c3ccc(C(=O)O)cc3)CCN(c3ccc(C(=O)O)cc3)CC2)cc1 [Embodiment 6, 4,4′,4″,4′″-(1,4,7,10-tetraazacyclododecane-1,4,7,10-tetrayl)tetrabenzoic Acid] | 0 | 0 | 0 | 20 | 0 | I (Degree of irritation 0-0.1: Grade I (unstimulated)) | 0 | 0 | 0 | 20 | 0 | I (Degree of irritation 0-0.1: Grade I (unstimulated)) | 0 | 0 | 1 | 19 | 0.05 | I (Degree of irritation 0-0.1: Grade I (unstimulated)) | 61 ppm | 149% | Cadmium (Cd) Adsorption amount ([1]; content 1.0% aqueous solution): 69 ppm; Cadmium (Cd) Adsorption rate ([1]; content 1.0%): 168%; Cadmium (Cd) Adsorption amount ([1]; content 2.0% aqueous solution): 77 ppm; Cadmium (Cd) Adsorption rate ([1]; content 2.0%): 188%; Nickel (Ni) Adsorption amount ([2]; content 0.5% aqueous solution): 81 ppm; Nickel (Ni) Adsorption rate ([2]; content 0.5%): 165%; Nickel (Ni) Adsorption amount ([2]; content 1.0% aqueous solution): 83 ppm; Nickel (Ni) Adsorption rate ([2]; content 1.0%): 169%; Nickel (Ni) Adsorption amount ([2]; content 2.0% aqueous solution): 87 ppm; Nickel (Ni) Adsorption rate ([2]; content 2.0%): 178%; Formaldehyde GC Area, 30 min [3]: 0.183 mAU*min; Formaldehyde GC Area, 180 min [3]: 0 mAU*min; Formaldehyde GC Area, Initial [3]: 0.305 mAU*min; Arsenic (As) Adsorption amount ([4]; content 0.5% aqueous solution): 42 ppm; Arsenic (As) Adsorption rate ([4]; content 0.5%): 168%; Arsenic (As) Adsorption amount ([4]; content 1.0% aqueous solution): 45 ppm; Arsenic (As) Adsorption rate ([4]; content 1.0%): 180%; Arsenic (As) Adsorption amount ([4]; content 2.0% aqueous solution): 48 ppm; Arsenic (As) Adsorption rate ([4]; content 2.0%): 192%; Total amount (Cu, Zn, Mn, Ni, Cd) [5]: ≤5 ppm |
| O=C(O)c1cncc(N2CCN(c3cncc(C(=O)O)c3)CCN(c3cncc(C(=O)O)c3)CCN(c3cncc(C(=O)O)c3)CC2)c1 [Embodiment 7, 5,5′,5″,5′″-(1,4,7,10-tetraazacyclododecane-1,4,7,10-tetrayl)tetranicotinic Acid] | 0 | 0 | 0 | 20 | 0 | I (Degree of irritation 0-0.1: Grade I (unstimulated)) | 0 | 0 | 0 | 20 | 0 | I (Degree of irritation 0-0.1: Grade I (unstimulated)) | 0 | 0 | 0 | 20 | 0 | I (Degree of irritation 0-0.1: Grade I (unstimulated)) | 62 ppm | 151% | Cadmium (Cd) Adsorption amount ([1]; content 1.0% aqueous solution): 72 ppm; Cadmium (Cd) Adsorption rate ([1]; content 1.0%): 176%; Cadmium (Cd) Adsorption amount ([1]; content 2.0% aqueous solution): 76 ppm; Cadmium (Cd) Adsorption rate ([1]; content 2.0%): 185%; Nickel (Ni) Adsorption amount ([2]; content 0.5% aqueous solution): 92 ppm; Nickel (Ni) Adsorption rate ([2]; content 0.5%): 188%; Nickel (Ni) Adsorption amount ([2]; content 1.0% aqueous solution): 97 ppm; Nickel (Ni) Adsorption rate ([2]; content 1.0%): 198%; Nickel (Ni) Adsorption amount ([2]; content 2.0% aqueous solution): 102 ppm; Nickel (Ni) Adsorption rate ([2]; content 2.0%): 208%; Formaldehyde GC Area, 30 min [3]: 0.181 mAU*min; Formaldehyde GC Area, 180 min [3]: 0 mAU*min; Formaldehyde GC Area, Initial [3]: 0.305 mAU*min; Arsenic (As) Adsorption amount ([4]; content 0.5% aqueous solution): 41 ppm; Arsenic (As) Adsorption rate ([4]; content 0.5%): 164%; Arsenic (As) Adsorption amount ([4]; content 1.0% aqueous solution): 45 ppm; Arsenic (As) Adsorption rate ([4]; content 1.0%): 180%; Arsenic (As) Adsorption amount ([4]; content 2.0% aqueous solution): 51 ppm; Arsenic (As) Adsorption rate ([4]; content 2.0%): 204%; Total amount (Cu, Zn, Mn, Ni, Cd) [5]: ≤5 ppm |
| O=C(O)c1ccc(N2CCN(c3ccc(C(=O)O)o3)CCN(c3ccc(C(=O)O)o3)CCN(c3ccc(C(=O)O)o3)CC2)o1 [Embodiment 8, 5,5′,5″,5′″-(1,4,7,10-tetraazacyclododecane-1,4,7,10-tetrayl)tetrakis(furan-2-carboxylic Acid)] | 0 | 0 | 0 | 20 | 0 | I (Degree of irritation 0-0.1: Grade I (unstimulated)) | 0 | 0 | 0 | 20 | 0 | I (Degree of irritation 0-0.1: Grade I (unstimulated)) | 0 | 0 | 2 | 18 | 0.10 | I (Degree of irritation 0-0.1: Grade I (unstimulated)) | 61 ppm | 149% | Cadmium (Cd) Adsorption amount ([1]; content 1.0% aqueous solution): 64 ppm; Cadmium (Cd) Adsorption rate ([1]; content 1.0%): 156%; Cadmium (Cd) Adsorption amount ([1]; content 2.0% aqueous solution): 71 ppm; Cadmium (Cd) Adsorption rate ([1]; content 2.0%): 173%; Nickel (Ni) Adsorption amount ([2]; content 0.5% aqueous solution): 86 ppm; Nickel (Ni) Adsorption rate ([2]; content 0.5%): 176%; Nickel (Ni) Adsorption amount ([2]; content 1.0% aqueous solution): 96 ppm; Nickel (Ni) Adsorption rate ([2]; content 1.0%): 196%; Nickel (Ni) Adsorption amount ([2]; content 2.0% aqueous solution): 99 ppm; Nickel (Ni) Adsorption rate ([2]; content 2.0%): 202%; Formaldehyde GC Area, 30 min [3]: 0.168 mAU*min; Formaldehyde GC Area, 180 min [3]: 0 mAU*min; Formaldehyde GC Area, Initial [3]: 0.305 mAU*min; Arsenic (As) Adsorption amount ([4]; content 0.5% aqueous solution): 39 ppm; Arsenic (As) Adsorption rate ([4]; content 0.5%): 156%; Arsenic (As) Adsorption amount ([4]; content 1.0% aqueous solution): 47 ppm; Arsenic (As) Adsorption rate ([4]; content 1.0%): 188%; Arsenic (As) Adsorption amount ([4]; content 2.0% aqueous solution): 49 ppm; Arsenic (As) Adsorption rate ([4]; content 2.0%): 196%; Total amount (Cu, Zn, Mn, Ni, Cd) [5]: ≤5 ppm |

Reference: US20210207064A1, “COMPOUND FOR RESTORING CONTAMINATED SOIL OR CONTAMINATED WATER” (FNG RESEARCH CO., LTD., priority 2018, published 2021)
